Literature values, collected in patent publication US20230117508A1, “ENHANCEMENT OF CAMP SIGNALING AS A COMBINATION DRUG STRATEGY FOR THE TREATMENT OF PSYCHIATRIC AND NEUROLOGICAL DISORDERS IN WHICH DEPRESSIVE, ANHEDONIA, MOTIVATION-RELATED OR COGNITION-RELATED DYSFUNCTION EXISTS” (ALTO NEUROSCIENCE, INC., priority 2021, published 2023).

Tests used:
[1] = humans
[2] = not given; remark: listed apart in the source
[3] = small clinical trials in depression
[4] = in vivo

In the case of `CCOC(=O)COc1ccc2c(c1)C[C@@H](NC[C@H](O)c1cccc(Cl)c1)CC2` [amibegron], the “antidepressant-like effects in animals” value is listed as “promising antidepressant-like effects” and the “efficacy in two acute treatment clinical trials for depression” value [1] is listed as “failed to show efficacy”.

For `COc1ccc(C2CNC(=O)C2)cc1OC1CCCC1` (stereo not drawn) [rolipram], the “phenotypes of treated mice” value [2] is given as “antidepressant and pro-cognitive phenotypes” and the “improvement in depression compared with TCA medications” value [3] is given as “In none of these studies, however, did rolipram produce a greater improvement in depression than the TCA medications”.

In the case of `O=C(Nc1c(Cl)cncc1Cl)c1ccc(OC(F)F)c(OCC2CC2)c1` [Roflumilast], the antidepressant effect [4] is listed as “no evidence of an antidepressant effect” and the cognitive effects [4] is listed as “pro-cognitive effects”.
